# According to DBAASP:
# Where “and” joins values, the source holds several entries; their conditions need not be identical. Equal entries are not always repeated.
# Legend:
# Assay in all cases: ≥ marks a high value that may be exact or a test limit, other limits are often not marked, values filed in µg/mL are converted to µM
# [1] = test system: Candida albicans NCYC 1467
# [2] = test system: Enterococcus faecalis NCTC 12697
# [3] = test system: Escherichia coli NCTC 10418
# [4] = test system: Klebsiella pneumoniae ATCC 43816
# [5] = test system: Pseudomonas aeruginosa ATCC 27853
# [6] = test system: Staphylococcus aureus NCTC 10788
# [7] = test system: Staphylococcus aureus NCTC 12493
# Aureobasidium pullulans = test system: Aureobasidium pullulans
# [8] = test system: Candida albicans ATCC 10231
# [9] = test system: Corynebacterium glutamicum ATCC 13032
# [10] = test system: Escherichia coli ATCC 25922
# [11] = test system: Staphylococcus aureus ATCC 9144
# [12] = test system: Candida albicans CGMCC 2.2086
# [13] = test system: Candida parapsilosis CGMCC 2.3989
# [14] = test system: Candida tropicalis CGMCC 2.1975
# [15] = test system: Lacticaseibacillus rhamnosus 7469
# [16] = test system: Lactiplantibacillus plantarum 8014
# [17] = test system: Salmonella enterica subsp. enterica serovar Typhimurium ATCC 14028
# [18] = test system: Salmonella enterica subsp. enterica serovar Typhimurium C77-31
# [19] = test system: Staphylococcus aureus ATCC 25923
# [20] = test system: Staphylococcus aureus ATCC 29213
# [21] = test system: Staphylococcus epidermidis ATCC 12228
# Escherichia coli MG1655 = test system: Escherichia coli MG1655
# [22] = test system: Pseudomonas aeruginosa PA7
# [23] = test system: Pseudomonas aeruginosa PAO1
# [24] = test system: Staphylococcus aureus NCTC 8325
# Escherichia coli K-12 = test system: Escherichia coli K-12
# [25] = test system: Pseudomonas aeruginosa PA214
# [26] = test system: Pseudomonas aeruginosa PA287
compound,measurement,setting,value
CC[C@H](C)[C@@H]1NC(=O)[C@H](C)NC(=O)[C@@H](NC(=O)[C@H](Cc2ccccc2)NC(=O)[C@@H](NC(=O)[C@H](CCCCN)NC(=O)[C@@H]2CCCN2C(=O)[C@H](CC(C)C)NC(=O)[C@H](Cc2ccccc2)NC(=O)[C@H](CCCCN)NC(=O)[C@H](C)NC(=O)[C@H](C)NC(=O)[C@H](CC(C)C)NC(=O)CNC(=O)[C@H](C)NC(=O)[C@@H](NC(=O)[C@H](CC(C)C)NC(=O)[C@@H]2CCCN2C(=O)[C@H](CC(C)C)NC(=O)[C@@H](N)Cc2ccccc2)[C@@H](C)CC)[C@@H](C)CC)CSSC[C@@H](C(=O)O)NC(=O)[C@H](CCCCN)NC(=O)[C@H](CCCCN)NC(=O)[C@H]([C@@H](C)O)NC1=O [FLPLIAGLAAKFLPKIFCAITKKC],MIC,[1],4 µM
same,MIC,[2],8 µM
same,MIC,[3],8 µM
same,MIC,[4],16 µM
same,MIC,[5],32 µM
same,MIC,[6],4 µM
same,MIC,[7],16 µM
CC(C)[C@H](NC(=O)[C@H](CCCCN)NC(=O)[C@H](C)NC(=O)[C@@H](NC(=O)[C@@H](NC(=O)[C@H](CCCN=C(N)N)NC(=O)[C@H](C)NC(=O)[C@H](Cc1c[nH]c2ccccc12)NC(=O)[C@H](Cc1c[nH]c2ccccc12)NC(=O)CN)[C@@H](C)O)C(C)C)C(=O)N[C@@H](CCCN=C(N)N)C(=O)N[C@@H](CCCCN)C(N)=O [GWWARTVAKVRK],MIC,Aureobasidium pullulans,≥ 50 µM
same,MIC,[8],25 µM
same,MIC,[9],1.6 µM
same,MIC,[10],6.3 µM
same,MIC,[5],12.5 µM
same,MIC,[11],≥ 50 µM
CC[C@H](C)[C@H](N)C(=O)N[C@@H](Cc1cnc[nH]1)C(=O)N[C@@H](Cc1cnc[nH]1)C(=O)N[C@H](C(=O)N[C@@H](Cc1cnc[nH]1)C(=O)N[C@@H](Cc1cnc[nH]1)C(=O)N[C@H](C(=O)N[C@H](C(=O)N[C@@H](Cc1cnc[nH]1)C(=O)N[C@@H](Cc1cnc[nH]1)C(=O)N[C@H](C(=O)N[C@@H](Cc1cnc[nH]1)C(=O)N[C@@H](Cc1cnc[nH]1)C(=O)N[C@H](C(=O)N[C@H](C(=O)N[C@@H](Cc1cnc[nH]1)C(=O)N[C@@H](Cc1cnc[nH]1)C(=O)N[C@H](C(=O)N[C@@H](Cc1cnc[nH]1)C(=O)N[C@@H](Cc1cnc[nH]1)C(=O)N[C@H](C(=O)N[C@H](C(=O)N[C@@H](Cc1cnc[nH]1)C(=O)N[C@@H](Cc1cnc[nH]1)C(=O)N[C@H](C(=O)N[C@@H](Cc1cnc[nH]1)C(=O)N[C@@H](Cc1cnc[nH]1)C(=O)N[C@H](C(N)=O)[C@@H](C)CC)[C@@H](C)CC)[C@@H](C)CC)[C@@H](C)CC)[C@@H](C)CC)[C@@H](C)CC)[C@@H](C)CC)[C@@H](C)CC)[C@@H](C)CC)[C@@H](C)CC)[C@@H](C)CC [IHHIHHIIHHIHHIIHHIHHIIHHIHHI],MIC,[12],≥ 64 µM
same,MIC,[13],≥ 64 µM
same,MIC,[14],8 µM
same,MIC,[15],≥ 64 µM
same,MIC,[16],2 µM
same,MIC,[17],> 64 µM
same,MIC,[18],≥ 64 µM
same,MIC,[19],> 64 µM
same,MIC,[20],> 64 µM
same,MIC,[21],> 64 µM
CC[C@H](C)[C@H](N)C(=O)N[C@@H](Cc1cnc[nH]1)C(=O)N[C@@H](Cc1cnc[nH]1)C(=O)N[C@H](C(=O)N[C@@H](Cc1cnc[nH]1)C(=O)N[C@@H](Cc1cnc[nH]1)C(=O)N[C@H](C(=O)N[C@H](C(=O)N[C@@H](Cc1cnc[nH]1)C(=O)N[C@@H](Cc1cnc[nH]1)C(=O)N[C@H](C(=O)N[C@@H](Cc1cnc[nH]1)C(=O)N[C@@H](Cc1cnc[nH]1)C(=O)N[C@H](C(N)=O)[C@@H](C)CC)[C@@H](C)CC)[C@@H](C)CC)[C@@H](C)CC)[C@@H](C)CC [IHHIHHIIHHIHHI],MIC,[12],8 µM
same,MIC,[13],4 µM
same,MIC,[14],1 µM
same,MIC,[15],≥ 64 µM
same,MIC,[16],≥ 64 µM
same,MIC,[17],32 µM and 64 µM
same,MIC,[19],> 64 µM
same,MIC,[20],> 64 µM
same,MIC,[21],> 64 µM
CC[C@H](C)[C@H](N)C(=O)N[C@@H](CCCCN)C(=O)N[C@H](C(=O)N1CCC[C@H]1C(=O)N1CCC[C@H]1C(=O)N[C@H](C(=O)N[C@H](C(=O)N[C@@H](CCCCN)C(=O)N[C@@H](CC(=O)O)C(=O)N[C@H](C(=O)N[C@@H](CC(C)C)C(=O)N[C@@H](CCCCN)C(=O)N[C@@H](CCCCN)C(=O)N[C@H](C(=O)N[C@@H](C)C(=O)N[C@@H](CCCCN)C(=O)NCC(=O)N[C@H](C(=O)N[C@@H](CC(C)C)C(=O)N[C@@H](CO)C(=O)N[C@H](C(=O)N[C@H](C(=O)N[C@@H](C)C(=O)N[C@@H](CC(=O)O)C(=O)N[C@@H](C)C(=O)N[C@@H](CC(C)C)C(=O)N[C@@H](CO)C(=O)N[C@@H](CCCCN)C(=O)N[C@@H](CO)C(=O)O)C(C)C)[C@@H](C)O)C(C)C)C(C)C)[C@@H](C)O)C(C)C)[C@@H](C)CC)[C@@H](C)CC [IKIPPIVKDTLKKVAKGVLSTVADALSKS],MIC,Escherichia coli MG1655,1 µM
same,MIC,[22],8 µM
same,MIC,[23],5.66 µM
same,MIC,[24],≥ 362 µM
C[C@H](NC(=O)[C@H](C)NC(=O)[C@H](Cc1ccccc1)NC(=O)[C@H](C)NC(=O)[C@H](CCCCN)NC(=O)[C@H](C)NC(=O)[C@H](Cc1c[nH]c2ccccc12)NC(=O)[C@H](C)NC(=O)[C@H](CCCCN)NC(=O)[C@H](C)NC(=O)[C@H](Cc1ccccc1)NC(=O)[C@H](C)NC(=O)[C@H](C)NC(=O)[C@H](CCCCN)NC(=O)[C@H](CCCCN)NC(=O)[C@H](CCCCN)NC(=O)[C@@H](N)CCCCN)C(N)=O [KKKKAAFAKAWAKAFAA],MIC,Escherichia coli K-12,12.5 µM
same,MIC,[25],≥ 50 µM
same,MIC,[26],≥ 50 µM
same,MIC,[23],50 µM
C[C@H](NC(=O)[C@H](C)NC(=O)[C@H](Cc1ccccc1)NC(=O)[C@H](C)NC(=O)[C@H](C)NC(=O)[C@H](Cc1c[nH]c2ccccc12)NC(=O)[C@H](C)NC(=O)[C@H](CCCCN)NC(=O)[C@H](C)NC(=O)[C@H](Cc1ccccc1)NC(=O)[C@H](C)NC(=O)[C@H](C)NC(=O)[C@H](CCCCN)NC(=O)[C@H](CCCCN)NC(=O)[C@H](CCCCN)NC(=O)[C@H](CCCCN)NC(=O)[C@@H](N)CCCCN)C(N)=O [KKKKKAAFAKAWAAFAA],MIC,Escherichia coli K-12,6.3 µM
same,MIC,[25],25 µM
same,MIC,[26],≥ 50 µM
same,MIC,[23],25 µM
CC[C@H](C)[C@H](NC(=O)[C@H](CCC(=O)O)NC(=O)[C@H](CCCCN)NC(=O)[C@H](C)NC(=O)[C@@H](NC(=O)[C@H](CCCCN)NC(=O)[C@H](CCCCN)NC(=O)[C@H](CC(C)C)NC(=O)[C@@H](NC(=O)[C@H](CC(=O)O)NC(=O)[C@H](CCCN=C(N)N)NC(=O)[C@@H](NC(=O)[C@H](Cc1ccccc1)NC(=O)CNC(=O)[C@@H]1CCCN1C(=O)[C@@H](NC(=O)[C@H](CCCCN)NC(=O)[C@@H](N)CC(C)C)[C@@H](C)CC)C(C)C)[C@@H](C)O)C(C)C)C(=O)N[C@@H](Cc1ccccc1)C(=O)N[C@@H](CO)C(=O)N[C@@H](C)C(=O)N[C@H](C(=O)N[C@H](C(=O)NCC(=O)N[C@@H](C)C(=O)N[C@H](C(=O)N[C@H](C(=O)N[C@@H](CCC(N)=O)C(=O)N[C@@H](CO)C(=O)O)[C@@H](C)O)C(C)C)[C@@H](C)O)C(C)C [LKIPGFVRDTLKKVAKEIFSAVTGAVTQS],MIC,Escherichia coli MG1655,1 µM
same,MIC,[22],4 µM
same,MIC,[23],4 µM
same,MIC,[24],≥ 128 µM
